In patent publication US6692927B2, “Bax degradation involvement in tumor survival and progression” (University of South Florida, priority 2000, dated 2004):
Where a SMILES comes first, the peptide text is derived from it. [ ]: non-standard residue; d: D form. The star is where a group is joined. Nva = CCC[C@H](N)C(=O)O; Cbz = O=C(OCc1ccccc1)*

Experiments:
Bax degradation activity = assay: cell-free Bax (or Bcl-2) degradation assay with extracts of inhibitor-pretreated cells; format: cell-based, human
Experimental: FIGS. 9A-9F show Bax degradation depends on ubiquitination, proteasome and ATP. (FIG. 9A) Jurkat cells (0 h) were treated with either 50 μM LLnV or 10 μM lactacystin, followed by preparation of Bax immunoprecipitates (with clone 6A7), which were immunoblotted with an ubiquitin antibody. Positions of putative ubiquitinated Bax proteins (p47, p55) are indicated at left. The nature of the ˜30 kDa and ˜84 kDa remains unclear. (FIG. 9B) The [^35S]-labeled Bax (upper) or Bcl-2 (lower) protein (1 μl) were incubated at 37° C. for 2 h with either buffer Z only (lane 1) or […] protein extract of MCF-7 cells grown exponentially (lane 2) or pretreated for 8 h with […] LLnV (lane 3). (FIG. 9C) The [^35S]-labeled Bax protein (1 μl) was incubated with either buffer Z only (lane 1) or 100 μg MCF-7 cell lysate at 37° C. for 4 h, in the presence of an indicated inhibitor (100 mM; lanes 3-8) or an equal volume of DMSO (lane 2) in buffer Z. A weak band of ˜16 kDa (indicated by an arrow) is probably an intermediate product of proteasome-mediated Bax degradation. (FIG. 9D) The proteasome in MCF-7 whole cell lysate (W lys, lane 1) was precipitated by using either ultraspin (ULS) or a proteasome subunit a6 antibody (IP). Both supernatant (lanes 2, 4) and pellet (lanes 3, 5) fractions were examined by Western blot assay using antibody to the proteasome a6 subunit (MW 33 kDa). (FIG. 9E) Bax degradation assay was performed as in FIG. 9B, with addition of buffer Z (lane 1) or 100 μg protein from MCF-7 whole cell lysate (lane 2), ultraspun supernatant (lane 3) or plus the pellet (lane 4), immunodepleted supernatant (lane 5) or plus a purified 20S proteasome ([…]; lane 6), or the purified proteasome alone (2 μg; lane 7). (FIG. 9F) Bax degradation assay was performed as in FIG. 9B, in the absence (lane 3) or presence of 10 mM ATP (lane 2) or 10 mM ATP-y-S (lane 4).
In vitro Bax Degradation Assay: Human Bax-a cDNA subcloned into pcDNA3 was a gift from Dr. Hong-gang Wang. Human full length of bcl-2-a cDNA was cloned from Jurkat T cells and subcloned into pcDNA3.1(−) as described+. Both bax and bcl-2 plasmids were used for coupled in vitro transcription/translation (Promega; Madison, Wis.) in the presence of [^35S]methionine (Amersham Pharmacia Biotech; Piscataway, N.J.). Protein extracts were prepared from either MCF-7 cells or prostate tumor tissues in buffer Y (50 mM Tris-HCl, pH 7.4, 250 mM NaCl, 1% Triton X-100, 0.1% SDS, 1 mM EDTA), and used for Bax (or Bcl-2) degradation assay. […]

MCF-7 cells = assay: Bax level and PARP cleavage in MCF-7 cells; format: cell-based, human; settings: LLnV
Excerpt: Levels of BDA predict levels of Bax and consequently influence sensitivity of human cancer cells to proteasome inhibitor-induced apoptosis. Basal level of Bax protein in SV40-transformed WI-38 cells (VA13) was several-fold higher than that of human breast cancer MCF-7 cells (FIG. 1E, top panel, lanes 1 vs. 3). This is due to a much lower level of BDA in VA13 cells than in MCF-7 cells (FIG. 1E, lower panel, lanes 1 vs. 3). This conclusion is further confirmed by using increased amounts of protein extracts of each cell line in the cell-free BDA assay (FIG. 4A, top panel). […] In contrast, when MCF-7 cells were treated under the same conditions, Bax levels were not increased; PARP was cleaved only after 24 hours treatment, which is Bax-independent (FIG. 4B, lanes 6-9). Therefore, although highly preliminary, it appears that levels of BDA determine levels of Bax and consequently affect responsiveness of human cancer cells to proteasome inhibition-induced apoptosis.

[1] = Jurkat T cells pretreated with LLnV (50 µM, 8 hours)

CCC[C@@H](C=O)NC(=O)[C@H](CC(C)C)NC(=O)[C@H](CC(C)C)NC(=O)OCc1ccccc1 [LLnV] (Cbz-Leu-Leu-[Nva]-aldehyde)
Bax degradation activity in the cell extract (Bax degradation activity; [1]): inhibited | levels of labeled Bcl-2 after in vitro incubation (Bax degradation activity; [1]): no effects | cell-free Bax degradation activity (Bax degradation activity; MCF-7 cells pretreated for 8 h with 50 mM LLnV (FIG. 9B legend)): inhibited | BDA inhibition, VA-13 compared with MCF-7 (Bax degradation activity; cells pretreated with LLnV): a greater inhibition was observed in VA-13 than in MCF-7 cells | time after which PARP was cleaved (MCF-7 cells; Bax-independent): 24 h | Bax levels (MCF-7 cells; same conditions as VA-13): not increased
